In PubChem BioAssay (NCI):
Values after ≈ are worked out from the molar mass of the structure shown.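 Step 1: Grow cells in 96-well plates. Step 2: Expose to compound for 48 hours at 5 concentrations. Step 3: Interpolate endpoints linearly; if unreached, use highest concentration. Here, GI50 denotes the concentration required for 50% inhibition of growth. TGI denotes the concentration required for complete inhibition of growth.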

Columns and labels:
Experiment in all cases: NCI tumour cell line growth inhibition, 48 h
ACHN renal = system: ACHN renal
MDA-N = system: MDA-N
786-0 renal = system: 786-0 renal
SR leukemia = system: SR leukemia
HS 578T breast = system: HS 578T breast
CCRF-CEM leukemia = system: CCRF-CEM leukemia
SK-MEL-2 melanoma = system: SK-MEL-2 melanoma
HOP-62 NSCLC = system: HOP-62 NSCLC
SF-295 CNS = system: SF-295 CNS
SF-539 CNS = system: SF-539 CNS
UACC-62 melanoma = system: UACC-62 melanoma

| SMILES | TGI (ACHN renal) | TGI (MDA-N) | TGI (786-0 renal) | TGI (SR leukemia) | TGI (HS 578T breast) | TGI (CCRF-CEM leukemia) | TGI (SK-MEL-2 melanoma) | TGI (HOP-62 NSCLC) | TGI (SF-295 CNS) | TGI (SF-539 CNS) | TGI (UACC-62 melanoma) | GI50 (CCRF-CEM leukemia) | GI50 (HOP-62 NSCLC) | GI50 (SF-295 CNS) | GI50 (SF-539 CNS) |
| --- | --- | --- | --- | --- | --- | --- | --- | --- | --- | --- | --- | --- | --- | --- | --- |
| Cc1ccc2c(c1)CC1(Cc3cc(C)ccc3C1=O)C2=O | > 100 µM | > 100 µM | > 100 µM | > 100 µM | > 100 µM | > 100 µM | > 100 µM | > 100 µM | > 100 µM | > 100 µM |  |  |  |  |  |
| CC(NC(CC12CC3CC(CC(C3)C1)C2)C(N)=O)c1ccccc1 (stereo not drawn) | 57.6 µM | 75.6 µM |  | 41.3 µM |  | 41.9 µM |  | > 100 µM | 28.4 µM |  | > 100 µM |  |  |  |  |
| COC(=O)c1sc2c(c1C(=O)OC)C(=Nc1ccc(OC)cc1)SC2=Nc1ccc(OC)cc1 | 2.51 µM | 2.52 µM | 1.33 µM | > 100 µM |  | 0.289 µM | 1.48 µM | 2.23 µM | 3.42 µM | 0.889 µM | 2.84 µM |  |  |  |  |
| C=CCCCCCCCCCOC1C=CC(O)C(CO)O1 (stereo not drawn) | > 100 µM | 82.1 µM | > 100 µM |  | > 100 µM |  | > 100 µM | > 100 µM | > 100 µM | > 100 µM | 97.4 µM |  |  |  |  |
| Cc1n[nH]c(=O)c2c3c([nH]c12)-c1ccccc1C3 | > 100 µM | > 100 µM | > 100 µM | > 100 µM | > 100 µM | > 100 µM | > 100 µM | > 100 µM | > 100 µM | > 100 µM |  |  |  |  |  |
| COc1ccc(Cl)cc1NC(=O)O/N=C(\Cl)C(C)C | 4.21 µM | 26.2 µM | 27.1 µM |  | 69.2 µM | > 29.7 µM | 33.9 µM | 35.2 µM | 33.9 µM | 29.4 µM | 32.1 µM |  |  |  |  |
| N#CC1=C(N)OC2=C(CCCc3ccc([N+](=O)[O-])cc32)C1c1ccc(Cl)cc1 (stereo not drawn) | 46.5 µM | 39.6 µM | 23.9 µM |  | 88.8 µM | > 100 µM | 54.7 µM | > 100 µM | > 100 µM | 29.5 µM | 20.2 µM |  |  |  |  |
| N#CCCN(C(=O)Nc1ccc(NC(=O)N(CCC#N)c2ccccc2)cc1)c1ccccc1 | > 100 µM | > 100 µM | > 100 µM | > 100 µM | > 100 µM |  | > 100 µM | > 100 µM | > 100 µM |  | > 100 µM |  |  |  |  |
| CC(=O)OC1CCC2(C)C(CCC3C2CCC2(C)C(c4ccc(=O)oc4)C(OC(C)=O)CC32O)C1 (stereo not drawn) |  |  |  |  |  | 0.0556 µM | 0.0911 µM | 0.0331 µM | 0.0456 µM | 0.015 µM | 0.0506 µM |  |  |  |  |
| Cc1ccc([N+](=O)[O-])cc1S(=O)(=O)Nc1ccc(C2=NN(S(=O)(=O)c3cc([N+](=O)[O-])ccc3C)C(c3ccccc3O)C2)cc1 (stereo not drawn) | > 100 µM | > 100 µM | > 100 µM | > 100 µM |  | > 100 µM | > 100 µM | > 100 µM | > 100 µM |  | > 100 µM |  |  |  |  |
| CC/C(CC(=O)CCC(=O)Nc1ccc(C)c(C)c1)=N\NC(=O)c1cc2ccccc2cc1O | > 100 µM |  |  | 69 µM |  | > 100 µM | > 100 µM | > 100 µM | > 100 µM |  | 43.9 µM |  |  |  |  |
| Cc1c2ccncc2c(C)c2c1[nH]c1ccc(O)cc12 |  |  |  |  |  | 0.31 µg/mL |  | 0.206 µg/mL | 0.167 µg/mL | 1.29 µg/mL |  | 0.0158 µg/mL (≈ 0.06 µM) | 0.0255 µg/mL (≈ 0.0972 µM) | 0.0181 µg/mL (≈ 0.0692 µM) | 0.263 µg/mL (≈ 1 µM) |
| CC(=O)CC(O)(C(F)(F)Cl)C(F)(Cl)Cl (stereo not drawn) | > 10 µM | > 10 µM | > 10 µM |  | > 10 µM | > 10 µM | > 10 µM | > 10 µM | > 10 µM | > 10 µM | > 10 µM |  |  |  |  |
| CC1(C)OCC(/C=C\C(O)CC2(C)OCCO2)CO1 (stereo not drawn) | > 100 µM | > 100 µM | > 100 µM | > 100 µM | > 100 µM |  | > 100 µM | > 100 µM | > 100 µM | > 100 µM | > 100 µM |  |  |  |  |
| COc1ccc2nc(-c3ccc(N)cc3)sc2c1 | > 100 µM |  | > 100 µM | > 100 µM | > 100 µM | > 100 µM | > 100 µM | > 100 µM | > 100 µM | > 100 µM | > 100 µM |  |  |  |  |
| CC(=O)N(C(=O)CC(=O)N1N=C(C)C(N=Nc2cccc([N+](=O)[O-])c2)C1=O)c1ccc(Cl)cc1 (stereo not drawn) | > 10 µM | > 10 µM | > 10 µM | > 10 µM | > 10 µM | > 10 µM |  | > 10 µM | > 10 µM | > 10 µM | > 10 µM |  |  |  |  |
| CN1N=C(c2ccncc2)OC1c1ccc(C(F)(F)F)cc1 (stereo not drawn) | > 100 µM | > 100 µM | > 100 µM |  | > 100 µM | > 100 µM | > 100 µM | > 100 µM | > 100 µM | > 100 µM | > 100 µM |  |  |  |  |
| CCCOC(=O)CCC(NC(=O)c1ccc(Nc2nc3ccccc3nc2-c2cccs2)cc1)C(=O)OCCC (stereo not drawn) | > 100 µM |  |  | > 100 µM |  | > 100 µM | 59.9 µM | > 100 µM | > 100 µM | > 100 µM | > 100 µM |  |  |  |  |
| CCCNC(=O)c1cc(OC)c(OC)cc1NC(=O)C12CC3CC(CC(C3)C1)C2 | 30.9 µM | 30.3 µM | 30.6 µM |  | 51.5 µM | > 100 µM | 29.5 µM | 34.7 µM | 35.9 µM | 46.9 µM |  |  |  |  |  |
| COc1ccc(C(CC(=O)c2cccs2)C(=O)c2ccc3c(c2)OCO3)cc1 (stereo not drawn) | > 100 µM | > 100 µM |  |  | > 100 µM | > 100 µM |  | > 100 µM |  | > 100 µM | > 100 µM |  |  |  |  |
| O=C(NCC(O)COc1ccccc1)c1ccccc1O (stereo not drawn) | > 100 µM | > 100 µM | > 100 µM | > 100 µM |  | > 100 µM | > 100 µM | > 100 µM | > 100 µM | > 100 µM | > 100 µM |  |  |  |  |
| O=C(O)c1ccccc1Sc1ccc(C=C2NC(=S)N(c3ccccc3)C2=O)s1 | > 100 µM | > 100 µM | 35.8 µM | > 100 µM | > 100 µM |  | > 100 µM | > 100 µM | > 100 µM |  | > 100 µM |  |  |  |  |
